Target: T1, human SIRT1 (Homo sapiens, UniProt Q96EB6)
T1 construct: purchased Sigma–Aldrich S8846
T1 sequence (Q96EB6 1-747): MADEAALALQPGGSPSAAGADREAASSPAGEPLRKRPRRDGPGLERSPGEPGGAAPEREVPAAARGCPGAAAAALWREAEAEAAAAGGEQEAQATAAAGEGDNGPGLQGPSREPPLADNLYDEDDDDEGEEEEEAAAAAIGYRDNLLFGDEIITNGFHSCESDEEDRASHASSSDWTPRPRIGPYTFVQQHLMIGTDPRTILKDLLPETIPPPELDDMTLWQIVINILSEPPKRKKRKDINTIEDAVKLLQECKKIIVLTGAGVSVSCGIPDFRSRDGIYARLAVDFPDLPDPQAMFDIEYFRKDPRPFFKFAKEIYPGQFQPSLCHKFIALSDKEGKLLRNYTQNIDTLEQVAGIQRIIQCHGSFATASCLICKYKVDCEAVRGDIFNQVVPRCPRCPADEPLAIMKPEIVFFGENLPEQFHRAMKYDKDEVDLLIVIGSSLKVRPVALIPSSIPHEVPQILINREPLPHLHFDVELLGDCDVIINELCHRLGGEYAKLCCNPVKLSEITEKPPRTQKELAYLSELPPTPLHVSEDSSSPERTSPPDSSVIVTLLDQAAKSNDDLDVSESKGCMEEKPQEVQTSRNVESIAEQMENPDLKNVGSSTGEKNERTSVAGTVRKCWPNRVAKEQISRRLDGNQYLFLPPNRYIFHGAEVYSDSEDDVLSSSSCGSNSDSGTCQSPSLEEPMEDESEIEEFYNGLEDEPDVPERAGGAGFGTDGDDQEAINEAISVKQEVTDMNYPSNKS
Experiment: Surface plasmon resonance (Biacore T200) of SAND peptides on immobilized SIRT1
Type: binding
Conditions: for binding kinetics (association and dissociation) with SIRT1: SPR sensorgrams, 20, 100, 200 µM, dissociation time 1200 s; for binding kinetics (association and dissociation) with SIRT1 / association with SIRT1: contact time 300 s; for binding kinetics (association and dissociation) with SIRT1 / affinity (as seen through binding and dissociation) with SIRT1: in words; for association with SIRT1 / association with SIRT1 with increasing peptide concentration / affinity (as seen through binding and dissociation) with SIRT1: SPR; for association with SIRT1: Biacore T200, CM5 chip, human SIRT1 immobilized in 10 mM sodium acetate pH 4.0 plus 20 µM NAD+, peptides (K222 acetylated) 20, 100, 200 μM, 20 μl/min, described in words; for association with SIRT1 with increasing peptide concentration: six peptide concentrations 10, 15, 20, 50, 100, 200 µM plus control 0 µM, Supplementary Figure 1; for affinity (as seen through binding and dissociation) with SIRT1: wild-type versus mutant peptide
Protocol: The surface plasmon resonance (SPR) experiments were performed on Biacore Model T200 equipment (GE Healthcare Biosciences, Uppsala, Sweden). For the immobilization of human SIRT1 (catalog number S8846, Sigma–Aldrich, Saint Louis, MO), a CM5 sensor chip S series (GE Healthcare Biosciences) has carboxylic groups available for covalent coupling was used. All solutions used were purchased from the equipment supplier (GE Healthcare Biosciences). The procedures described here were performed automatically with the Biacore instrument using pre-established programs for binding amines in peptides or proteins.
Briefly, the carboxylic groups on the CM5 sensor chip surface were activated with EDC + NHS, forming the NHS ester reactive intermediate, which, after washing with HBS-N, readily reacted with amines dissolved in the immobilization solution. The human SIRT1 ligand was dissolved in 10 mM sodium acetate pH 4.0 plus 20 µM NAD+ (catalog number N1636, beta-nicotinamide adenine dinucleotide hydrate, Sigma–Aldrich), which was immobilized onto the Biacore sensor chip according to the manufacturer´s instructions.
To detect interactions between SIRT1 and AIRE WT or AIRE G228W mutant SAND domain peptides, different concentrations of peptides were injected onto the CM5 chip with immobilized SIRT1 protein. […] The surface was regenerated between samples by injecting 2.0 M glycine pH 2.0 (30 s, 30 μl/min) followed by injection of 2.0 M NaCl (30 s, 30 μl/min). The stabilization period between injections after regeneration was 200 s.
The respective sequences of the twenty-amino acid peptide residues (Synbio Technologies, Monmouth Junction, NJ, USA) comprising positions 211 to 230 of the SAND domain of the human AIRE protein are as follows: from the C to N-terminus, AIRE wild-type ([…]) and AIRE G228W mutant ([…]). The underlined K residue represents the position where the acetyl radical was added. The experiment determined whether the K residue underlined was acetylated or not. The AIRE wild-type or AIRE G228W mutation data are available through GenBank NCBI (https://www.ncbi.nlm.nih.gov/) accession numbers (NM_000383.4): c.682G>T G [GGG] > W [TGG], coding sequence variant autoimmune regulator (NP_000374.1): p. Gly228TrpG (Gly) > W missense variant, DbSNP (https://www.ncbi.nlm.nih.gov/snp/rs121434257) and ClinVar (https://www.ncbi.nlm.nih.gov/clinvar/variation/3313/).
Kinetic data were analyzed with Anabel Analysis of Binding Events software ([32]), available at (www.skscience.org/anabel). Data obtained with the different concentrations of AIRE WT or mutant peptides were combined in the same graph.

Row | binding kinetics (association and dissociation) with SIRT1 (listed as wild-type SAND domain peptide) | association with SIRT1 | association with SIRT1 with increasing peptide concentration | affinity (as seen through binding and dissociation) with SIRT1 | association with SIRT1 (listed as G228W mutant peptide) | association with SIRT1 (listed as mutant AIRE SAND peptide (Trp228)) | Sequence | binding kinetics (association and dissociation) with SIRT1 (listed as WT AIRE SAND peptide (Gly228))
1 | bound faster and dissociated longer | more significant association capacity | progressive increase in the association | stronger affinity | – | – | IQQVFESGGSKKCIQVGGEF [wild-type SAND G228 peptide, twenty-amino acid peptide comprising positions 211 to 230 of the SAND domain of the human AIRE protein, wild-type] | associated and dissociated with SIRT1 throughout the analysis
2 | – | less able to associate with SIRT1 | not observed | weaker association | weaker association | lesser association affinity | IQQVFESGGSKKCIQVGWEF [mutant W228 SAND peptide, twenty-amino acid peptide comprising positions 211 to 230 of the SAND domain of the human AIRE protein, G228W mutant] | –
